Patent US20230089368A1, “POLYAROMATIC UREA DERIVATIVES AND THEIR USE IN THE TREATMENT OF MUSCLE DISEASES” (ANAGENESIS BIOTECHNOLOGIES S.A.S., priority 2019, published 2023)

Tests used:
[1] = tested on: satellite-like cells (Pax7-positive cells) in hMP; assay: Myotube assay: Pax7-positive (satellite-like) cell quantification; assay type: cell-based, human; parameters: key to Pax7% (pool of Pax7-positive cells) / Pax7: −: Depletes the pool of cells, while positively affects the myotubes; +: Maintains or increases the pool of cells, with at least 1 of the highest concentration known to be cytotoxic; ++: Maintains or increases the pool of cells, without any toxicity; conditions: myotube assay, compounds incubated 3 days
From the text: (§1) The efficacy of said compound for use in treating, ameliorating, delaying, curing and/or preventing a disease or condition associated with muscle cells and/or satellite cells is positively correlated with the generation of myotubes (i.e. the increase of the area occupied by myotubes on the assay) and/or satellite cells (i.e. the increase of the number of satellite cells) in the assay after adding said compound. The generation of myotubes by the addition of said compound is expressed as the EC50 value, the concentration of said compound that corresponds with the half-maximal generation of myotubes, and the MA (normalized myotube area) value, the normalized area occupied by generated myotubes on the assay. […] Since muscle cells are formed from myotubes during myogenesis, the generation of myotubes in the assay is a good indicator of the ability of said compound to induce the formation of functional muscle cells in vivo. The number of satellite cells is measured as the percentage of Pax7 positive cells, relative to the total number of cells in the assay, as shown in FIG. 3. The percentage of Pax7 is a good indicator of the ability of said compound to induce the formation of satellite cells which are able to play a role in muscle repair and regeneration in vivo.
(§2) DMD human induced pluripotent stem cells (hereafter “DMD hiPSC”), generated from the NORM-1 hiPSC WT cell line by gene editing, or WT human induced pluripotent stem cells (hereafter “WT hiPSC”), being NORM-1 hiPSC wt cell line, have been differentiated according to Chal et al. 2015, 2016, to produce muscle progenitors (hereafter “hMP”). The hMP population contains satellite-like cells (i.e Pax7-positive cells) and satellite cells' progenies (i.e. Myogenin-positive cells).
(§3) FIG. 1 provides an example of a Myotube assay workflow. At day 0, hMP are thawed and 3.1 million cells are plated into a T75-flask coated with hESC-qualified Matrigel™ (Corning) in SkGM proliferating medium (PromoCells), supplemented with 5 μM Y-27632 (Tocris Bioscience). On day 2, SkGM proliferating medium is refreshed. On day 4, hMP are harvested and transferred into a 384-well plate coated with collagen type I at a density of 3500 cells/well in a DMEM-based medium, containing 5% of knockout serum replacement (Gibco), 1% PenStrep (Gibco), 1% MEM NEAA (Gibco) and 0.1 mM 2-mercaptoethanol (Gibco) (hereafter “K5 medium”) and 5 μM Y-27632. Compounds to be tested are then added in the medium and incubated for 3 days at 37° C. On day 7, cells are fixed and immunostained. For example, myotubes (alpha-actinin staining) and satellite-like (Pax7 staining) cells can be analyzed for total myotube area per well or Pax7-positive cell quantification.
(§4) DMD hMP were put in the Myotube assay according to the workflow described in Example 2.1. In particular, compound (i) was added at concentrations ranging from 1.5 nM to 30 μM, starting from day 4. hMP were cultivated for three more days in presence of compound (i), then fixed and analyzed for percentage of Pax7-positive cells and nuclei number. Duplicates of each condition were averaged.
(−): Depletes the pool of cells, while positively affects the myotubes; (+): Maintains or increases the pool of cells, with at least 1 of the highest concentration known to be cytotoxic; and (++) Maintains or increases the pool of cells, without any toxicity.

[2] = tested on: muscle progenitors (hMP) from DMD hiPSC or WT hiPSC; assay: Myotube assay: myogenic activity (total myotube area per well); assay type: cell-based, human; conditions: Homo sapiens, 72 h; myotube assay, compounds incubated 3 days; read-out: MA (normalized Myotube Area, efficacy)
Experimental: An in vitro assay for assessing the efficacy of compounds for use in treating, ameliorating, delaying, curing and/or preventing a disease or condition associated with muscle cells and/or satellite cells is described in example 78. Herein, the generation of myotubes and satellite cells after adding a compound to a myotube assay workflow is assessed. Said myotube assay workflow is derived from wild-type or DMD human induced pluripotent stem cells (WT hiPSC or DMD hiPSC). Before the addition of said compound, the assay comprises satellite-like cells, but no significant amount of myotubes.
as §1, §2, §3
as §4, with “quantification” for “percentage”, “total myotube area per well.” for “Pax7-positive cells and nuclei number.”
Qualitative scale: ++++: EC50<500 nM; +++: 500 nM≤EC50<1000 nM; ++: 1000 nM≤EC50<5000 nM; +: EC50≥5000 nM; +++: MA≥75%; ++: 50%≤MA<75%; +: 25%≤MA<50%.

In the case of `CSc1cc(Oc2ccnc3[nH]c(=O)cnc23)ccc1NC(=O)Nc1cc(C(C)(C)C)no1` [(bx), 1-(3-(tert-butyl)isoxazol-5-yl)-3-(2-(methylthio)-4-((3-oxo-3,4-dihydropyrido[2,3-b]pyrazin-8-yl)oxy)phenyl)urea], the “Pax7% (pool of Pax7-positive cells)” value [1] is reported as “++” and the Emax [2] is reported as at least 75%.
In the case of `COc1cccc(-n2nc(C(C)(C)C)cc2NC(=O)Nc2ccc(Oc3ccnc4[nH]c(=O)cnc34)cc2SC)c1` [(aw), 1-(3-(tert-butyl)-1-(3-methoxyphenyl)-1H-pyrazol-5-yl)-3-(2-(methylthio)-4-((3-oxo-3,4-dihydropyrido[2,3-b]pyrazin-8-yl)oxy)phenyl)urea], the “Pax7% (pool of Pax7-positive cells)” value [1] is reported as “+” and the Emax [2] is reported as at least 75%.
In the case of `CSc1cc(Oc2ccnc3c2CCC(=O)N3)ccc1NC(=O)Nc1cc(C(C)(C)C)nn1-c1cccc(Cl)c1` [(bz), 1-(3-(tert-butyl)-1-(3-chlorophenyl)-1H-pyrazol-5-yl)-3-(2-(methylthio)-4-((7-oxo-5,6,7,8-tetrahydro-1,8-naphthyridin-4-yl)oxy)phenyl)urea], the “Pax7% (pool of Pax7-positive cells)” value [1] is reported as “+” and the Emax [2] is reported as at least 75%.
For `CC(C)(C)c1cc(NC(=O)Nc2ccc(Oc3ccnc4[nH]c(=O)cnc34)cc2F)n(-c2ncccn2)n1` [(m), 1-(3-(tert-butyl)-1-(pyrimidin-2-yl)-1H-pyrazol-5-yl)-3-(2-fluoro-4-((3-oxo-3,4-dihydropyrido[2,3-b]pyrazin-8-yl)oxy)phenyl)urea], the “Pax7% (pool of Pax7-positive cells)” value [1] was “++” and the Emax [2] was 50 to 75%.
`CSc1cc(Oc2ccnc3[nH]c(=O)cnc23)ccc1NC(=O)Nc1cc(C(C)(C)C)nn1-c1ccc(C)c(Cl)c1` [(cl), 1-(3-(tert-butyl)-1-(3-chloro-4-methylphenyl)-1H-pyrazol-5-yl)-3-(2-(methylthio)-4-((3-oxo-3,4-dihydropyrido[2,3-b]pyrazin-8-yl)oxy)phenyl)urea] was tested, and the “Pax7% (pool of Pax7-positive cells)” value [1] was “+” and the Emax [2] was at least 75%.
For `CSc1cc(Oc2ccnc3[nH]c(=O)cnc23)ccc1NC(=O)Nc1cc(C(C)(C)C)nn1-c1ccc(OCCCN(C)C)cc1` [(cr), 1-(3-(tert-butyl)-1-(4-(3-(dimethylamino)propoxy)phenyl)-1H-pyrazol-5-yl)-3-(2-(methylthio)-4-((3-oxo-3,4-dihydropyrido[2,3-b]pyrazin-8-yl)oxy)phenyl)urea], the “Pax7% (pool of Pax7-positive cells)” value [1] was “+” and the Emax [2] was at least 75%.
`CC(C)(C)c1cc(NC(=O)Nc2ccc(Oc3ccncc3)cc2F)n(-c2ccccc2)n1` [(ad), 1-(3-(tert-butyl)-1-phenyl-1H-pyrazol-5-yl)-3-(2-fluoro-4-(pyridin-4-yloxy)phenyl)urea] was tested, and the “Pax7% (pool of Pax7-positive cells)” value [1] was “++” and the Emax [2] was 25 to 50%.
For `CSc1cc(Oc2ccnc3c2CCC(=O)N3)ccc1NC(=O)Nc1cc(C(C)(C)C)nn1-c1ccccc1` [(an), 1-(3-(tert-butyl)-1-phenyl-1H-pyrazol-5-yl)-3-(2-(methylthio)-4-((7-oxo-5,6,7,8-tetrahydro-1,8-naphthyridin-4-yl)oxy)phenyl)urea], the “Pax7% (pool of Pax7-positive cells)” value [1] was “++” and the Emax [2] was at least 75%.
For `CSc1cc(Oc2ccnc3[nH]c(=O)cnc23)ccc1NC(=O)Nc1cc(C(C)(C)C)nn1-c1ccc(CN2CCOCC2)cc1` [(dd), 1-(3-(tert-butyl)-1-(4-(morpholinomethyl)phenyl)-1H-pyrazol-5-yl)-3-(2-(methylthio)-4-((3-oxo-3,4-dihydropyrido[2,3-b]pyrazin-8-yl)oxy)phenyl)urea], the “Pax7% (pool of Pax7-positive cells)” value [1] was “+” and the Emax [2] was at least 75%.
In the case of `CSc1cc(Oc2ccnc3[nH]c(=O)cnc23)ccc1NC(=O)Nc1ncc(C(C)(C)C)s1` [(ah), 1-(5-(tert-butyl)thiazol-2-yl)-3-(2-(methylthio)-4-((3-oxo-3,4-dihydropyrido[2,3-b]pyrazin-8-yl)oxy)phenyl)urea], the “Pax7% (pool of Pax7-positive cells)” value [1] is reported as “++” and the Emax [2] is reported as at least 75%.
In the case of `CSc1cc(Oc2ccnc3[nH]c(=O)cnc23)ccc1NC(=O)Nc1cc(C(C)(C)C)nn1-c1ccc(OCCN2CCOCC2)cc1` [(cf), 1-(3-(tert-butyl)-1-(4-(2-morpholinoethoxy)phenyl)-1H-pyrazol-5-yl)-3-(2-(methylthio)-4-((3-oxo-3,4-dihydropyrido[2,3-b]pyrazin-8-yl)oxy)phenyl)urea], the “Pax7% (pool of Pax7-positive cells)” value [1] is reported as “−” and the Emax [2] is reported as at least 75%.
For `CC(C)(C)c1cc(NC(=O)Nc2ccc(Oc3ccccc3)cc2F)n(-c2ccccc2)n1` [(ac), 1-(3-(tert-butyl)-1-phenyl-1H-pyrazol-5-yl)-3-(2-fluoro-4-phenoxyphenyl)urea], the “Pax7% (pool of Pax7-positive cells)” value [1] was “++” and the Emax [2] was 50 to 75%.
`O=C(Nc1ccc(Oc2ccnc3[nH]c(=O)cnc23)cc1F)Nc1c(-c2ccccc2)nn2c1CCC2` [(y), 1-(2-fluoro-4-((3-oxo-3,4-dihydropyrido[2,3-b]pyrazin-8-yl)oxy)phenyl)-3-(2-phenyl-5,6-dihydro-4H-pyrrolo[1,2-b]pyrazol-3-yl)urea] was tested, and the “Pax7% (pool of Pax7-positive cells)” value [1] was “++” and the Emax [2] was 25 to 50%.
With `CNC(=O)c1ccc(Oc2cccc(NC(=O)Nc3cc(C(C)(C)C)nn3-c3ccccc3)c2)cn1` [(ab), 5-(3-(3-(3-(tert-butyl)-1-phenyl-1H-pyrazol-5-yl)ureido)phenoxy)-N-methylpicolinamide] the “Pax7% (pool of Pax7-positive cells)” value [1] was “++” and the Emax [2] was 50 to 75%.
With `CC(C)(C)c1cc(NC(=O)Nc2ccc(Oc3ccnc4[nH]c(=O)cnc34)cc2Cl)n(-c2ccccc2)n1` [(ak), 1-(3-(tert-butyl)-1-phenyl-1H-pyrazol-5-yl)-3-(2-chloro-4-((3-oxo-3,4-dihydropyrido[2,3-b]pyrazin-8-yl)oxy)phenyl)urea] the “Pax7% (pool of Pax7-positive cells)” value [1] was “+” and the Emax [2] was at least 75%.
With `CC(=O)Nc1cc(Oc2ccc(NC(=O)Nc3cc(C(C)(C)C)nn3-c3ccccc3)c3ccccc23)ccn1` [(dj), N-(4-((4-(3-(3-(tert-butyl)-1-phenyl-1H-pyrazol-5-yl)ureido)naphthalen-1-yl)oxy)pyridin-2-yl)acetamide] the “Pax7% (pool of Pax7-positive cells)” value [1] was “+” and the Emax [2] was at least 75%.
With `CCSc1cc(Oc2ccnc3[nH]c(=O)cnc23)ccc1NC(=O)Nc1cc(C(C)(C)C)nn1-c1ccccc1` [(am), 1-(3-(tert-butyl)-1-phenyl-1H-pyrazol-5-yl)-3-(2-(ethylthio)-4-((3-oxo-3,4-dihydropyrido[2,3-b]pyrazin-8-yl)oxy)phenyl)urea] the “Pax7% (pool of Pax7-positive cells)” value [1] was “++” and the Emax [2] was at least 75%.
`CSc1cc(Oc2ccnc3[nH]c(=O)cnc23)ccc1NC(=O)Nc1cc(C(C)(C)C)nn1CCCN1CCOCC1` [(bh), 1-(3-(tert-butyl)-1-(3-morpholinopropyl)-1H-pyrazol-5-yl)-3-(2-(methylthio)-4-((3-oxo-3,4-dihydropyrido[2,3-b]pyrazin-8-yl)oxy)phenyl)urea] was tested, and the “Pax7% (pool of Pax7-positive cells)” value [1] was “++” and the Emax [2] was at least 75%.
`CSc1cc(Oc2ccnc(NC(C)=O)c2)ccc1NC(=O)Nc1cc(C(C)(C)C)nn1-c1ccccc1` [(aq), N-(4-(4-(3-(3-(tert-butyl)-1-phenyl-1H-pyrazol-5-yl)ureido)-3-(methylthio)phenoxy)pyridin-2-yl)acetamide] was tested, and the “Pax7% (pool of Pax7-positive cells)” value [1] was “+” and the Emax [2] was at least 75%.
